Assay results as given in patent US20240092802A1, “MU-OPIOID RECEPTOR AGONISTS AND USES THEREFOR” (Kures, Inc., priority 2020, published 2024).
pEC50: −log10 of the molar value. Counter-ions that a name gives are not always drawn.

Target: Human MOR (Homo sapiens (Human), UniProt P35372)
Experiment: BRET G protein activation assay, human MOR in transfected HEK-293T cells
Assay type: cell-based
Details: not given
Excerpt: Transfection. Human or mouse MOR cDNA was transfected alongside GαoB with RLuc8 inserted at position 91 (GαoB-RLuc8), Gβ1 (β1), and Gγ2 fused to the full-length mVenus at its N terminus (mVenus γ2) into HEK-293T cells (5×10^6 cells/plate) in 10-cm dishes using PEI (Polysciences Inc.; Warrington, PA) in a 1:1 ratio diluted in Opti-MEM (Life Technologies Corp.; Grand Island, NY) to assay for G protein activation as described previously (Rives, M.-L. et al. J. Biol. Chem. 2012, 287, 27050-4; Negri, A.; Rives, M.-L.; Caspers, M. J. et al. J. Chem. Inf. Model. 2013, 53, 521-526). Cells were maintained in the Dulbecco's Modified Eagle Medium (high glucose #11965; Life Technologies) supplemented with 10% FBS (Premium Select, Atlanta Biologicals; Atlanta, GA) and 100 U/mL penicillin and 100 μg/mL streptomycin (#15140, Life Technologies). After 24 hours the media was changed, and the experiment was performed 24 hours later (48 hours after transfection).
BRET. Transfected cells were dissociated and resuspended in phosphate-buffered saline (PBS). Approximately 200,000 cells/well were added to a black-framed, white well 96-well plate (#60050; Perkin Elmer; Waltham, MA). The microplate was centrifuged and the cells were resuspended in PBS. Then 5 μM of the luciferase substrate coelenterazine H was added to each well for 5 minutes. Following coelenterazine H addition, ligands were added and the BRET signal was measured at 5 minutes on a PHERAstar FS plate reader. Quantification of the BRET signal required calculating the ratio of the light emitted by the energy acceptor, mVenus (510-540 nm), over the light emitted by the energy donor, RLuc8 (485 nm). […] Dose response curves were fit using three-parameter logistics equation in GraphPad Prism 6.

Sequence of Human MOR (P35372 whole entry): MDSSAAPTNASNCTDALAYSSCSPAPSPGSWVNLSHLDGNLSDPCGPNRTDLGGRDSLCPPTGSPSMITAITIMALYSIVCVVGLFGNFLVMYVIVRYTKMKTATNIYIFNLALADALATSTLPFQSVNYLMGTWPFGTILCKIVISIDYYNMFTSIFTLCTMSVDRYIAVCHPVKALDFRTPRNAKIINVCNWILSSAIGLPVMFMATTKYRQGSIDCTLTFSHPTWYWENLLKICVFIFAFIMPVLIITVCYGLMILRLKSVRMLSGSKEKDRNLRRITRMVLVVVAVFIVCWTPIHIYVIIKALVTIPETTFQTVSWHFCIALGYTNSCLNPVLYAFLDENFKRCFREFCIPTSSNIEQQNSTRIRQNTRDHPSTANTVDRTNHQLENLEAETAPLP

In the case of `CN1c2ccccc2C(NCCCCCCC(=O)O)c2ccc(I)cc2S1(=O)=O` (centres unmarked) [compound 84, 7-((3-Iodo-6-methyl-5,5-dioxido-6,11-dihydrodibenzo [c,f][1,2]thiazepin-11-yl)amino)heptanoic acid hydrochloride salt], the pEC50 was 7.40.

Same assay, conditions: BRET G protein activation, HEK-293T; mean ± SEM; read-out: EC50 Human MOR

`CN1c2ccccc2C(NCCCCCCC(=O)NCCO)c2ccc(Cl)cc2S1(=O)=O` (centres unmarked) [compound 57, 7-((3-Chloro-6-methyl-5,5-dioxido-6,11-dihydrodibenzo [c,f][1,2]thiazepin-11-yl)amino)-N-(2-hydroxyethyl) heptanamide] and `CC(=O)OCCCCCCNC1c2ccccc2N(C)S(=O)(=O)c2cc(Cl)ccc21` (centres unmarked) [compound 13, 6-((3-Chloro-6-methyl-5,5-dioxido-6,11-dihydrodibenzo[c,f][1,2]thiazepin-11-yl)amino)hexyl acetate] cannot be ordered by pEC50: greater than 5.00 for the first, greater than 5.00 for the second.

`COCCCCNC1c2ccccc2N(C)S(=O)(=O)c2cc(Cl)ccc21` (centres unmarked) [compound 39, 3-Chloro-11-((4-methoxybutyl)amino)-6-methyl-6,11-dihydrodibenzo [c,f][1,2]thiazepine 5,5-dioxide] and `COCCCNC1c2ccc(Cl)cc2N(C)S(=O)(=O)c2ccccc21` (centres unmarked) [compound 69, 8-Chloro-11-((3-methoxypropyl)amino)-6-methyl-6,11-dihydrodibenzo [c,f][1,2]thiazepine 5,5-dioxide] cannot be ordered by pEC50: greater than 5.00 for the first, greater than 4.70 for the second.

`COCC(C)CNC1c2ccccc2N(C)S(=O)(=O)c2cc(Cl)ccc21` (centres unmarked) [compound 68, 3-Chloro-11-((3-methoxy-2-methylpropyl)amino)-6-methyl-6,11-dihydrodibenzo[c,f][1,2]thiazepine 5,5-dioxide] and `COC(C)CCNC1c2ccccc2N(C)S(=O)(=O)c2cc(Cl)ccc21` (centres unmarked) [compound 67, 3-Chloro-11-((3-methoxybutyl)amino)-6-methyl-6,11-dihydrodibenzo [c,f][1,2]thiazepine 5,5-dioxide] cannot be ordered by pEC50: greater than 5.00 for the first, greater than 5.00 for the second.

`COCCCNC1c2cc(Br)ccc2N(C)S(=O)(=O)c2cc(Cl)ccc21` (centres unmarked) [compound 11, 9-Bromo-3-chloro-11-((3-methoxypropyl)amino)-6-methyl-6,11-dihydrodibenzo[c,f][1,2]thiazepine 5,5-dioxide] and `COCCCNC1c2ccc(Cl)cc2S(=O)(=O)N(C)c2ccsc21` (centres unmarked) [compound 77, 7-Chloro-10-((3-methoxypropyl)amino)-4-methyl-4, 10-dihydrobenzo[f]thieno[3,2-c][1,2]thiazepine 5,5-dioxide] cannot be ordered by pEC50: greater than 5.00 for the first, greater than 5.00 for the second.

`COCCCNC1c2ccccc2N(C)S(=O)(=O)c2cc([S+](C)[O-])ccc21` (centres unmarked) [compound 55, 11-((3-Methoxypropyl)amino)-6-methyl-3-(methylsulfinyl)-6,11-dihydrodibenzo[c,f][1,2]thiazepine 5,5-dioxide] and `COCCCNC1c2ccccc2N(C)S(=O)(=O)c2cc(C)ccc21` (centres unmarked) [compound 15, 11-((3-Methoxypropyl)amino)-3,6-dimethyl-6,11-dihydrodibenzo[c,f][1,2]thiazepine 5,5-dioxide] cannot be ordered by pEC50: greater than 4.70 for the first, greater than 5.00 for the second.

`CCOC(=O)CCCCCCNC1c2ccccc2S(=O)(=O)N(C)c2ccsc21` (centres unmarked) [compound 6, Ethyl 7-((4-methyl-5,5-dioxido-4,10-dihydrobenzo[f]thieno[3,2-c][1,2]thiazepin-10-yl)amino)heptanoate] and `CCOC(=O)CCCCCCNC1c2ccc(Br)cc2S(=O)(=O)N(C)c2ccsc21` (centres unmarked) [compound 74, Ethyl 7-((7-bromo-4-methyl-5,5-dioxido-4, 10-dihydrobenzo[f]thieno[3,2-c][1,2]thiazepin-10-yl)amino)heptanoate] cannot be ordered by pEC50: greater than 5.00 for the first, greater than 5.00 for the second.

`CN1c2ccccc2C(NCC2CCOC2)c2ccc(Cl)cc2S1(=O)=O` (centres unmarked) [compound 46, 3-chloro-6-methyl-11-(((tetrahydrofuran-3-yl)methyl)amino)-6,11-dihydrodibenzo[c,f][1,2]thiazepine 5,5-dioxide] and `CN1CCCC1CCNC1c2ccccc2N(C)S(=O)(=O)c2cc(Cl)ccc21` (centres unmarked) [compound 47, 3-chloro-6-methyl-11-((2-(1-methylpyrrolidin-2-yl)ethyl)amino)-6,11-dihydrodibenzo[c,f][1,2]thiazepine 5,5-dioxide] cannot be ordered by pEC50: greater than 5.00 for the first, greater than 4.70 for the second.

`COCCOCCNC1c2ccccc2N(C)S(=O)(=O)c2cc(Cl)ccc21` (centres unmarked) [compound 36, 3-Chloro-11-((2-(2-methoxyethoxy)ethyl)amino)-6-methyl-6,11-dihydrodibenzo[c,f][1,2]thiazepine 5,5-dioxide] and `CC(C)OCCCNC1c2ccccc2N(C)S(=O)(=O)c2cc(Cl)ccc21` (centres unmarked) [compound 35, 3-Chloro-11-((3-isopropoxypropyl)amino)-6-methyl-6,11-dihydrodibenzo [c,f][1,2]thiazepine 5,5-dioxide] cannot be ordered by pEC50: greater than 5.00 for the first, greater than 5.00 for the second.

`COCCCNC1c2ccccc2S(=O)(=O)N(C)c2c(Br)csc21` (centres unmarked) [compound 43, 3-Bromo-10-((3-methoxypropyl)amino)-4-methyl-4, 10-dihydrobenzo[f]thieno[3,2-c][1,2]thiazepine 5,5-dioxide] and `COCCCNC1c2ccccc2S(=O)(=O)N(C)c2ccsc21` (centres unmarked) [compound 7, 10-((3-Methoxypropyl)amino)-4-methyl-4,10-dihydrobenzo[f]thieno[3,2-c][1,2]thiazepine 5,5-dioxide] cannot be ordered by pEC50: greater than 4.70 for the first, greater than 5.00 for the second.

`CCOC(CCCNC1c2ccccc2N(C)S(=O)(=O)c2cc(Cl)ccc21)OCC` (centres unmarked) [compound 24, 3-Chloro-11-((4,4-diethoxybutyl)amino)-6-methyl-6,11-dihydrodibenzo[c,f][1,2]thiazepine 5,5-dioxide] and `CCSc1ccc2c(c1)S(=O)(=O)N(C)c1ccccc1C2NCCCOC` (centres unmarked) [compound 64, 3-(Ethylthio)-11-((3-methoxypropyl)amino)-6-methyl-6,11-dihydrodibenzo[c,f][1,2]thiazepine 5,5-dioxide] cannot be ordered by pEC50: greater than 5.00 for the first, greater than 5.00 for the second.

`COCCCNC1c2ccccc2N(C)S(=O)(=O)c2ccccc21` (centres unmarked) [compound 10, 11-((3-Methoxypropyl)amino)-6-methyl-6,11-dihydrodibenzo[c,f][1,2]thiazepine 5,5-dioxide] and `COCCCNC1c2ccccc2N(C)S(=O)(=O)c2cc(OC)ccc21` (centres unmarked) [compound 27, 3-Methoxy-11-((3-methoxypropyl)amino)-6-methyl-6,11-dihydrodibenzo [c,f][1,2]thiazepine 5,5-dioxide] cannot be ordered by pEC50: greater than 5.00 for the first, greater than 5.00 for the second.

Going from `COCCCNC1c2ccccc2N(C)S(=O)(=O)c2cc(OCc3ccccc3)ccc21` (centres unmarked) [compound 75, 3-(Benzyloxy)-11-((3-methoxypropyl)amino)-6-methyl-6,11-dihydrodibenzo[c,f][1,2]thiazepine 5,5-dioxide] to `COCCCNC1c2ccccc2N(C)S(=O)(=O)c2cc(Oc3ccccc3)ccc21` (centres unmarked) [compound 29, 11-((3-Methoxypropyl)amino)-6-methyl-3-phenoxy-6,11-dihydrodibenzo [c,f][1,2]thiazepine 5,5-dioxide], the pEC50 rises from less than 4.70 to greater than 5.00.

`CN1c2ccccc2C(NCCCCCCC2=NCCO2)c2ccc(Cl)cc2S1(=O)=O` (centres unmarked) [compound 58, 3-Chloro-11-((6-(4,5-dihydrooxazol-2-yl)hexyl)amino)-6-methyl-6,11-dihydrodibenzo[c,f][1,2]thiazepine 5,5-dioxide] and `CN1c2ccccc2C(NCCCC2OCCCO2)c2ccc(Cl)cc2S1(=O)=O` (centres unmarked) [compound 31, 11-((3-(1,3-Dioxan-2-yl)propyl)amino)-3-chloro-6-methyl-6,11-dihydrodibenzo[c,f][1,2]thiazepine 5,5-dioxide] cannot be ordered by pEC50: greater than 5.00 for the first, greater than 5.00 for the second.

`COCCCNC1c2ccccc2N(C)S(=O)(=O)c2cc(-c3ccccc3)ccc21` (centres unmarked) [compound 56, 11-((3-Methoxypropyl)amino)-6-methyl-3-phenyl-6,11-dihydrodibenzo[c,f][1,2]thiazepine 5,5-dioxide] and `COCCCNC1c2ccccc2N(C)S(=O)(=O)c2cc(OC(C)=O)ccc21` (centres unmarked) [compound 59, 11-((3-Methoxypropyl)amino)-6-methyl-5,5-dioxido-6,11-dihydrodibenzo[c,f][1,2]thiazepin-3-yl acetate] cannot be ordered by pEC50: greater than 5.00 for the first, greater than 5.00 for the second.

`COCCCNC1c2ccc(Br)cc2S(=O)(=O)N(C)c2ccsc21` (centres unmarked) [compound 72, 7-Bromo-10-((3-methoxypropyl)amino)-4-methyl-4, 10-dihydrobenzo[f]thieno[3,2-c][1,2]thiazepine 5,5-dioxide] and `CCOCCCNC1c2ccc(Br)cc2S(=O)(=O)N(C)c2ccsc21` (centres unmarked) [compound 73, 7-Bromo-10-((3-ethoxypropyl)amino)-4-methyl-4, 10-dihydrobenzo[f]thieno[3,2-c][1,2]thiazepine 5,5-dioxide] cannot be ordered by pEC50: greater than 5.00 for the first, greater than 5.00 for the second.

`CCOCCCNC1c2ccc(Cl)cc2S(=O)(=O)N(C)c2ccsc21` (centres unmarked) [compound 78, 7-Chloro-10-((3-ethoxypropyl)amino)-4-methyl-4, 10-dihydrobenzo[f]thieno[3,2-c][1,2]thiazepine 5,5-dioxide] showed a pEC50 greater than 5.00.
